The target of assay [1] is T1, EGFR (L858R T790M C797S) (Homo sapiens, UniProt P00533, C797S/L858R/T790M).
T1 construct: purchased SignalChem E10-122VG
Briefly: Biochemical EGFR inhibition assay (Caliper mobility shift), EGFR LRTMCS mutant. The note with it: inhibitory activity against EGFR LRTMCS mutant; apparent IC50; read-out: Ext Enz LRTMCS. A digest of the protocol: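 Kinase reactions proceed at 25° C. to 10%–20% conversion of total peptide, are terminated with 35 mM EDTA, and the phosphopeptide is resolved from substrate by electrophoretic mobility shift. Apparent IC50 values come from plotting percent activity against log compound concentration.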

Assay [2] has as its system phosphorylation of EGFR (Tyr1068) in NCI-H1975 cell line that harbors the EGFR L858R T790M mutations. The assay can be described thus: NCI-H1975 pEGFR AlphaLISA assay. The note with it: 4-5 hours incubation, read-out: Ext pEGFR H1975. Type of assay: cell-based. A digest of the protocol: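 Phospho-EGFR Tyr1068 AlphaLISA readout: lysates taken from compound-treated H1975 cells (L858R T790M EGFR) after a 4-5 h exposure at 37 °C. Cells had adhered overnight beforehand. IC50 derived by plotting % pEGFR inhibition against log compound concentration.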

Where [3] appears, read: Homo sapiens, NCI-H1975, inhibition of phosphorylation of mutant EGFR in NCI-H1975 cells.

Where two headings read alike, the source gives them in different places. Bounds are passed on as bounds.

T1 sequence (P00533 25-1210 T790M/C797S/L858R): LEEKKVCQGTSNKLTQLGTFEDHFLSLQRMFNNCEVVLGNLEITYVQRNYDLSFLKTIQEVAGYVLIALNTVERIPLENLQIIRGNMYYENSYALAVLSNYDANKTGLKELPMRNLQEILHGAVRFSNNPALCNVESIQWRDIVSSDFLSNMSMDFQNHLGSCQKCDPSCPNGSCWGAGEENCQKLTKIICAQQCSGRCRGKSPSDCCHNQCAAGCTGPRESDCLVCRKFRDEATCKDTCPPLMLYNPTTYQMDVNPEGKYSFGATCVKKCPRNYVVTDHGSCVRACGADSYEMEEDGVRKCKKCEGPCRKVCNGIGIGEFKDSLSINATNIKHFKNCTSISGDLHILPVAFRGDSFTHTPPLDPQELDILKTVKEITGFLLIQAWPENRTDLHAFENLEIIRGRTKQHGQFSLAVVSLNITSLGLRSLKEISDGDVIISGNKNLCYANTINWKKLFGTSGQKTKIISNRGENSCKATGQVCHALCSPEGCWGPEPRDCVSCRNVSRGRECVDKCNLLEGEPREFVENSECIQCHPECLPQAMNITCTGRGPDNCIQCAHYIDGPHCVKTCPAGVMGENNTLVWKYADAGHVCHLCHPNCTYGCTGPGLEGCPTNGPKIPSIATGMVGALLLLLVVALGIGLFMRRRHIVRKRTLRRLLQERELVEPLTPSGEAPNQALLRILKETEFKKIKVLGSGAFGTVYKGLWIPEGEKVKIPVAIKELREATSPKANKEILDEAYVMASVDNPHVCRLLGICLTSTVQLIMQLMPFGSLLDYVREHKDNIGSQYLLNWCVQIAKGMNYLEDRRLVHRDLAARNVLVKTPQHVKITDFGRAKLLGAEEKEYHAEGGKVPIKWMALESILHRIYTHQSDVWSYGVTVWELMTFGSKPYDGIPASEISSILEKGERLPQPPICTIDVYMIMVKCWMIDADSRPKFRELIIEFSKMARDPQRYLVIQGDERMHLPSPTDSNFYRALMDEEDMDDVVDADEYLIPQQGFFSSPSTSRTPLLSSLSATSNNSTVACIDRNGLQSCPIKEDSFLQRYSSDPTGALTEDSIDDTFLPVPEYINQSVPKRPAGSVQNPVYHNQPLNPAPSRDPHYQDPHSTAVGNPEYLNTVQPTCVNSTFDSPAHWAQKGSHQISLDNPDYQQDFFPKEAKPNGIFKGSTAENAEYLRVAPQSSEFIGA

Regarding `CCOc1ccc(N2CC(CS(=O)(=O)CC)C2)c2cnc(Nc3ccnc(N4CC[C@@H](O)[C@@](C)(F)C4)n3)cc12` (single isomer, unassigned) [Compound 145], the IC50 in assay [1] was in the range of 15.1 to 20 nM; in assay [2] (setting [3]) it was 20.1 to 30 nM.

Turning to `[2H]C([2H])([2H])O[C@@H]1CCN(c2nccc(Nc3cc4c(C5CC5)ccc(N5C[C@H](CS(C)(=O)=O)[C@H]5C)c4cn3)n2)C[C@@H]1F` [Compound 315, 5-cyclopropyl-N-(2-((3S,4R)-3-fluoro-4-(^2H3)piperidin-1-yl)pyrimidin-4-yl)-8-((2R,3S)-2-methyl-3-((methylsulfonyl)methyl)azetidin-1-yl)isoquinolin-3-amine], the figures for the IC50 in assay [1] and in assay [2] (setting [3]) were at most 15 nM and at most 10 nM, respectively.

Regarding `CC(C)c1ccc(N2C[C@H](CS(C)(=O)=O)[C@H]2C)c2cnc(Nc3ccnc(N4CC[C@H](O)C[C@@H]4C)n3)cc12` (single isomer, unassigned) [Compound 47, (2S,4S)-1-[4-({8-[(2R,3S)-3-(methanesulfonylmethyl)-2-methylazetidin-1-yl]-5-(propan-2-yl)isoquinolin-3-yl}amino)pyrimidin-2-yl]-2-methylpiperidin-4-ol or (2R,4R)-1-[4-({8-[(2R,3S)-3-(methanesulfonylmethyl)-2-methylazetidin-1-yl]-5-(propan-2-yl)isoquinolin-3-yl}amino)pyrimidin-2-yl]-2-methylpiperidin-4-ol], the IC50 in assay [1] is 15.1 to 20 nM; in assay [2] (setting [3]) it was at most 10 nM.

For the compound `CC(C)c1ccc(N2CC(CS(=O)(=O)C(F)F)C2)c2cnc(Nc3ccnc(N4CC[C@@H](O)[C@@](C)(F)C4)n3)cc12` (single isomer, unassigned) [Compound 219], the figures for the IC50 in assay [1] and in assay [2] (setting [3]) were at most 15 nM and at most 10 nM, respectively.

Regarding `CCS(=O)(=O)CC1CN(c2ccc(C(C)C)c3cc(Nc4ccnc(N5CC[C@@H](OCCO)[C@@H](F)C5)n4)ncc23)C1` [Compound 292, 2-{[(3S,4R)-1-{4-[(8-{3-[(ethanesulfonyl)methyl]azetidin-1-yl}-5-(propan-2-yl)isoquinolin-3-yl)amino]pyrimidin-2-yl}-3-fluoropiperidin-4-yl]oxy}ethan-1-ol], the figures for the IC50 in assay [1] and in assay [2] (setting [3]) were at most 15 nM and at most 10 nM, respectively.

Take `CO[C@@H]1CCN(c2nncc(Nc3cc4c(C(C)C)ccc(N5C[C@H](CS(C)(=O)=O)[C@H]5C)c4cn3)n2)C[C@@H]1F` [Compound 134, N-(3-((3S,4R)-3-fluoro-4-methoxypiperidin-1-yl)-1,2,4-triazin-5-yl)-5-isopropyl-8-((2R,3S)-2-methyl-3-(methylsulfonylmethyl)azetidin-1-yl)isoquinolin-3-amine]: the figures for the IC50 in assay [1] and in assay [2] (setting [3]) were at most 15 nM and at most 10 nM, respectively.

Turning to `CC(C)c1ccc(N2CC(CS(C)(=O)=O)C2)c2cnc(Nc3ccnc(N4CCC(C)(O)CC4)n3)cc12` [Compound 17, 1-[4-({8-[3-(methanesulfonylmethyl)azetidin-1-yl]-5-(propan-2-yl)isoquinolin-3-yl}amino)pyrimidin-2-yl]-4-methylpiperidin-4-ol], the IC50 in assay [1] was at most 15 nM; in assay [2] (setting [3]), 10.1 to 20 nM.

For `CC(C)c1ccc(N2C[C@H](CS(C)(=O)=O)[C@H]2C)c2cnc(Nc3ccnc(N4CC[C@@H](OCCN)[C@@](C)(F)C4)n3)cc12` [Compound 241, N-{2-[(3S,4R)-4-(2-aminoethoxy)-3-fluoro-3-methylpiperidin-1-yl]pyrimidin-4-yl}-8-[(2R,3S)-3-(methanesulfonylmethyl)-2-methylazetidin-1-yl]-5-(propan-2-yl)isoquinolin-3-amine], the values for the IC50 in assay [1] and in assay [2] (setting [3]) were at most 15 nM and 10.1 to 20 nM, respectively.

Consider `CC(C)c1ccc(N2C[C@H](CS(C)(=O)=O)[C@H]2C)c2cnc(Nc3ccnc(N4CCC(C)(O)CC4)n3)cc12` (single isomer, unassigned) [Compound 46], for which the IC50 in assay [1] is at most 15 nM; in assay [2] (setting [3]), at most 10 nM.

Turning to `CC(C)c1ccc(N2C[C@H](CS(C)(=O)=O)[C@H]2C)c2cnc(Nc3ccnc(N4CCC(OCCO)CC4)n3)cc12` [Compound 171, 2-({1-[4-({8-[(2R,3S)-3-(methanesulfonylmethyl)-2-methylazetidin-1-yl]-5-(propan-2-yl)isoquinolin-3-yl}amino)pyrimidin-2-yl]piperidin-4-yl}oxy)ethan-1-ol], the IC50 in assay [1] is at most 15 nM; in assay [2] (setting [3]), at most 10 nM.

As for `[2H]C([2H])([2H])O[C@@H]1CCN(c2nccc(Nc3cc4c(C(C)C)cnc(N5CC(CS(C)(=O)=O)C5)c4cn3)n2)C[C@@H]1F` [Compound 264, N-{2-[(3S,4R)-3-fluoro-4-(^2H3)methoxypiperidin-1-yl]pyrimidin-4-yl}-8-[3-(methanesulfonylmethyl)azetidin-1-yl]-5-(propan-2-yl)-2,7-naphthyridin-3-amine], the IC50 is at most 15 nM in assay [1] and at most 10 nM in assay [2] (setting [3]).

As for `CCS(=O)(=O)C[C@H]1CN(c2cnc(C(C)C)c3cc(Nc4ccnc(N5CC[C@@H](OCCO)[C@@H](F)C5)n4)ncc23)[C@@H]1C` [Compound 298, 2-{[(3S,4R)-1-[4-({8-[(2R,3S)-3-[(ethanesulfonyl)methyl]-2-methylazetidin-1-yl]-5-(propan-2-yl)-2,6-naphthyridin-3-yl}amino)pyrimidin-2-yl]-3-fluoropiperidin-4-yl]oxy}ethan-1-ol], the IC50 in assay [1] is at most 15 nM; in assay [2] (setting [3]), at most 10 nM.

In the case of `CO[C@@H]1[C@H](O)CN(c2nccc(Nc3cc4c(C(C)C)ccc(N5CC(CS(C)(=O)=O)C5)c4cn3)n2)CC1(F)F` (single isomer, unassigned) [Compound 291, (3R,4R)-5,5-difluoro-1-[4-({8-[3-(methanesulfonylmethyl)azetidin-1-yl]-5-(propan-2-yl)isoquinolin-3-yl}amino)pyrimidin-2-yl]-4-methoxypiperidin-3-ol or (3S,4S)-5,5-difluoro-1-[4-({8-[3-(methanesulfonylmethyl)azetidin-1-yl]-5-(propan-2-yl)isoquinolin-3-yl}amino)pyrimidin-2-yl]-4-methoxypiperidin-3-ol], the IC50 in assay [1] is at most 15 nM; in assay [2] (inhibition of phosphorylation of mutant EGFR in NCI-H1975 cells), at most 10 nM.

In the case of `CC(C)c1cnc(N2CC(CS(C)(=O)=O)C2)c2cnc(Nc3ccnc(N4CCN(C)CC4)n3)cc12` [Compound 3, 8-[3-(methanesulfonylmethyl)azetidin-1-yl]-N-[2-(4-methylpiperazin-1-yl)pyrimidin-4-yl]-5-(propan-2-yl)-2,7-naphthyridin-3-amine], the IC50 in assay [1] fell in the range of 20.1 to 30 nM; in assay [2] (setting [3]), 30.1 to 50 nM.

Regarding `CC(C)c1ccc(N2CC(CS(C)(=O)=O)C2)c2cnc(Nc3ccnc(N4C[C@@H](F)[C@@H](O)[C@](C)(F)C4)n3)cc12` (single isomer, unassigned) [Compound 156, (3R,4R,5R)-3,5-difluoro-1-[4-({8-[3-(methanesulfonylmethyl)azetidin-1-yl]-5-(propan-2-yl)isoquinolin-3-yl}amino)pyrimidin-2-yl]-3-methylpiperidin-4-ol or (3S,4S,5S)-3,5-difluoro-1-[4-({8-[3-(methanesulfonylmethyl)azetidin-1-yl]-5-(propan-2-yl)isoquinolin-3-yl}amino)pyrimidin-2-yl]-3-methylpiperidin-4-ol], the figures for the IC50 in assay [1] and in assay [2] (setting [3]) were at most 15 nM and at most 10 nM, respectively.

The values are drawn from patent US12172983B2, “EGFR inhibitors” (Blueprint Medicines Corporation, priority 2019, dated 2024).
